Results reported in patent publication US10844013B2, “Phenyl amino piperidine mTORC inhibitors and uses thereof” (Navitor Pharmaceuticals, Inc., priority 2016, dated 2020).
Where a name gives a salt, the structure may show the parent alone. Read-outs that look alike come from different tables or passages of the source.

How the values were obtained:
[1] = system: pS6K1 (p-p70 S6 Kinase (Thr389)) in MCF-7 cells; assay: AlphaLISA Ultra pS6K1 assay; type: cell-based; conditions: 2 hours compound incubation
Outline: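 MCF-7 cells seeded 20–24 h, medium refreshed 2 h, then treated 2 h with compound (0.5% DMSO final). Lysates probed for Thr389-phosphorylated p70 S6K by AlphaLISA Ultra, 2 h acceptor then 2 h donor bead incubation, read on a multimode reader.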

[2] = system: pAKT (p-Akt 1/2/3 (Ser473)) in MCF-7 cells; assay: AlphaLISA Ultra pAKT assay; type: cell-based
Outline: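 MCF-7 cells seeded 20-24 h, medium refreshed for 2 h, then treated with compounds for 2 h at 0.5% final DMSO. Lysates frozen at −80 °C, then pAKT detected by AlphaLISA with acceptor and donor beads, 2 h each.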

[3] = Homo sapiens, MCF7, 2 hours compound incubation

Row | SMILES | IC50 ([1]; Homo sapiens, MCF7, 2 h) [nM] | IC50 [2, 3] [nM] | IC50 ([1]; read-out: pS6K1 in MCF7: IC50) [nM] | IC50 ([2]; 2 hours compound incubation, read-out: pAKT in MCF7: IC50) [nM]
1 | Cc1cc(C)c(C(=O)N2CCN(c3ccccc3S(N)(=O)=O)CC2)cc1NC1CCN(c2ccccc2C#N)CC1(C)C (centres unmarked) [I-52, 2-(4-(5-(1-(2-Cyanophenyl)-3,3-dimethylpiperidin-4-ylamino)-2,4-dimethylbenzoyl)piperazin-1-yl)benzenesulfonamide] | > 10000 | > 10000 | – | –
2 | Cc1cc(C)c(C(=O)N2CCN(c3ccccc3S(N)(=O)=O)CC2)cc1N[C@H]1CCN(c2ccccc2C#N)C[C@H]1C [I-169, 2-(4-(5-(((3R,4S)-1-(2-cyanophenyl)-3-methylpiperidin-4-yl)amino)-2,4-dimethylbenzoyl)piperazin-1-yl)benzenesulfonamide] | 1000 to 3000 | > 10000 | – | –
3 | Cc1cc(C)c(C(=O)N2CCN(c3ccccc3C#N)CC2)cc1NC1CCN(c2ccccc2C#N)CC1 [I-71, 2-[4-({5-[4-(2-Cyanophenyl)piperazine-1-carbonyl]-2,4-dimethylphenyl}amino)piperidin-1-yl]benzonitrile] | 10 to 1000 | > 10000 | – | –
4 | Cc1cc(C)c(C(=O)N2CCN(c3cccnn3)[C@H](CO)C2)c(C)c1NC1CCN(c2ccccn2)CC1 [I-157, [(2S)-1-(pyridazin-3-yl)-4-(2,4,6-trimethyl-3-{[1-(pyridin-2-yl)piperidin-4-yl]amino}benzoyl)piperazin-2-yl]MeOH] | 10 to 1000 | > 10000 | – | –
5 | Cc1cc(C)c(C(=O)N2CCN(C(=O)OC(C)(C)C)[C@@H](CO)C2)cc1NC1CCN(c2ccccc2C#N)CC1 [I-7, (R)-tert-Butyl 4-(5-(1-(2-cyanophenyl)piperidin-4-ylamino)-2,4-dimethylbenzoyl)-2-(hydroxymethyl) piperazine-1-carboxylate] | 1000 to 3000 | > 10000 | – | –
6 | COc1cc(C)c(NC2CCN(c3ccccc3C#N)CC2)cc1C(=O)N1CCN(c2ccccc2S(N)(=O)=O)CC1 [I-105, 2-(4-(5-(1-(2-Cyanophenyl)piperidin-4-ylamino)-2-methoxy-4-methylbenzoyl)piperazin-1-yl)benzenesulfonamide] | 1000 to 3000 | > 10000 | – | –
7 | Cc1cc(C)c(C(=O)N2CCN(c3ccc(F)cn3)CC2)cc1NC1CCN(c2ccccc2Cl)CC1 [I-36, (5-(1-(2-Chlorophenyl)piperidin-4-ylamino)-2,4-dimethylphenyl)(4-(5-fluoropyridin-2-yl)piperazin-1-yl)methanone] | 5000 to 10000 | > 10000 | – | –
8 | C=CCN(c1cc(C(=O)N2CCN(c3ccccc3S(N)(=O)=O)CC2)c(C)cc1C)C1CCN(c2ccccc2C#N)CC1 [I-46, 2-(4-(5-(Allyl(1-(2-cyanophenyl)piperidin-4-yl)amino)-2,4-dimethylbenzoyl)piperazin-1-yl)benzenesulfonamide] | 1000 to 3000 | > 10000 | – | –
9 | Cc1cc(C)c(C(=O)N2CCN(c3ccccc3)[C@@H](C)C2)cc1NC1CCN(c2ccccc2C#N)CC1 [I-33, (S)-2-(4-(2,4-Dimethyl-5-(3-methyl-4-phenylpiperazine-1-carbonyl)phenylamino)piperidin-1-yl)benzonitrile] | 5000 to 10000 | > 10000 | – | –
10 | Cc1cc(C)c(C(=O)N2CCN(c3ccccn3)[C@H](CO)C2)cc1NC1CCN(c2ccccc2OC(F)(F)F)CC1 [I-183, (S)-(2,4-dimethyl-5-(1-(2-(trifluoromethoxy)phenyl)piperidin-4-ylamino)phenyl)(3-(hydroxymethyl)-4-(pyridin-2-yl)piperazin-1-yl)methanone] | 10 to 1000 | > 10000 | – | –
11 | Cc1cc(C)c(C(=O)N2CCN(c3ccccc3)[C@H](C(C)(C)O)C2)cc1NC1CCN(c2ccccc2C#N)CC1 [I-20] | 1000 to 3000 | > 10000 | – | –
12 | CCN(c1cc(C(=O)N2CCN(c3ccccc3S(N)(=O)=O)CC2)c(C)cc1C)C1CCN(c2ccccc2C#N)CC1C (centres unmarked) [I-10, 2-(4-(5-((1-(2-Cyanophenyl)-3-methylpiperidin-4-yl)(ethyl)amino)-2,4-dimethylbenzoyl)piperazin-1-yl)benzenesulfonamide] | 1000 to 3000 | > 10000 | – | –
13 | Cc1cc(C)c(C(=O)N2CCN(c3ccccn3)[C@@H](CO)C2)cc1NC1CCN(c2ccccc2C#N)CC1 [I-30] | 10 to 1000 | > 10000 | – | –
14 | Cc1cc(C)c(C(=O)N2CCN(c3ncccc3S(N)(=O)=O)CC2)c(C)c1N[C@@H]1CCN(c2ccccc2C#N)C[C@@H]1C [I-179, 2-(4-(3-(((3S,4R)-1-(2-cyanophenyl)-3-methylpiperidin-4-yl)amino)-2,4,6-trimethylbenzoyl)piperazin-1-yl)pyridine-3-sulfonamide] | 10 to 1000 | > 10000 | – | –
15 | Cc1nc(C)c(C(=O)N2CCN(c3ccccc3)[C@H](CO)C2)c(C)c1NC1CCN(c2ncccc2Cl)CC1 [I-165, [(2S)-4-(5-{[1-(3-chloropyridin-2-yl)piperidin-4-yl]amino}-2,4,6-trimethyl-pyridine-3-carbonyl)-1-phenyl-piperazin-2-yl]MeOH] | – | – | 10 to 1000 | > 10000
16 | Cc1cc(C)c(N(C)C2CCN(c3ccccc3C#N)CC2)cc1C(=O)N1CCN(c2ccccc2S(N)(=O)=O)CC1 [I-59] | 3000 to 5000 | > 10000 | – | –

Row | SMILES | IC50 ([1]; Homo sapiens, MCF7, 2 h) [nM] | IC50 [2, 3] [nM] | IC50 ([1]; read-out: pS6K1 in MCF7: IC50) [nM] | IC50 ([2]; 2 hours compound incubation, read-out: pAKT in MCF7: IC50) [nM]
17 | Cc1cc(C)c(C(=O)N2CCN(c3ccccc3C#N)[C@@H](CO)C2)cc1NC1CCN(c2ccccc2C#N)CC1 (single isomer, unassigned) [I-77, 2-[4-({5-[(3R or 3S)-4-(2-Cyanophenyl)-3-(hydroxymethyl)piperazine-1-carbonyl]-2,4-dimethylphenyl}amino)piperidin-1-yl]benzonitrile] | 10 to 1000 | > 10000 | – | –
18 | CNC(=O)c1ccccc1N1CCN(C(=O)c2cc(NC3CCN(c4ccccc4C#N)CC3)c(C)cc2C)CC1 [I-64] | 10 to 1000 | > 10000 | – | –
19 | Cc1cc(C)c(C(=O)N2CCN(c3ccccc3S(N)(=O)=O)CC2)cc1NC1CCN(c2ccccc2C#N)CC1 [I-67] | 10 to 1000 | > 10000 | – | –
20 | Cc1cc(C)c(C(=O)N2CCN(c3ncccc3F)[C@@H](CO)C2)cc1NC1CCN(c2ccccc2C#N)CC1 [I-115, (R)-2-(4-(5-(4-(3-Fluoropyridin-2-yl)-3-(hydroxymethyl)piperazine-1-carbonyl)-2,4-dimethylphenylamino)piperidin-1-yl)benzonitrile] | 1000 to 3000 | > 10000 | – | –
21 | Cc1cc(C)c(C(=O)N2CCN(c3cccnn3)CC2)cc1NC1CCN(c2ccccc2C#N)CC1 [I-70, 2-[4-({2,4-Dimethyl-5-[4-(pyridazin-3-yl)piperazine-1-carbonyl]phenyl}amino)piperidin-1-yl]benzonitrile] | 3000 to 5000 | > 10000 | – | –
22 | Cc1cc(C)c(C(=O)NC2CCN(c3ccccc3C#N)CC2)cc1NC1CCN(c2ccccc2C#N)CC1 [I-97, N-(1-(2-Cyanophenyl)piperidin-4-yl)-5-(1-(2-cyanophenyl)piperidin-4-ylamino)-2,4-dimethylbenzamide] | > 10000 | > 10000 | – | –
23 | COc1cccc(N2CCC(Nc3cc(C(=O)N4CCN(c5ccccc5S(N)(=O)=O)CC4)c(C)cc3C)CC2)c1 [I-5, 2-(4-(5-(1-(3-Methoxyphenyl)piperidin-4-ylamino)-2,4-dimethylbenzoyl)piperazin-1-yl) benzenesulfonamide] | 1000 to 3000 | > 10000 | – | –
24 | Cc1cc(C)c(C(=O)N2CCN(c3ccccc3C)[C@@H](CO)C2)cc1NC1CCN(c2ccccc2C#N)CC1 [I-112, (R)-2-(4-(5-(3-(Hydroxymethyl)-4-o-tolylpiperazine-1-carbonyl)-2,4-dimethylphenylamino)piperidin-1-yl)benzonitrile] | 1000 to 3000 | > 10000 | – | –
25 | Cc1cc(C)c(C(=O)N2CCN(c3cccc(F)c3S(=O)(=O)N=C(N(C)C)N(C)C)CC2)cc1NC1CCN(c2ccccc2C#N)CC1 [I-19, 2-{2-[4-(5-{[1-(2-cyanophenyl)piperidin-4-yl]amino}-2,4-dimethylbenzoyl)piperazin-1-yl]-6-fluorobenzenesulfonyl}-1,1,3,3-tetramethylguanidine] | 1000 to 3000 | > 10000 | – | –
26 | Cc1nc(C)c(C(=O)N2CCN(c3ccccc3)[C@H](CO)C2)c(C)c1NC1CCN(c2ccc(F)cc2C#N)CC1 [I-154, 5-fluoro-2-[4-({5-[(3S)-3-(hydroxy-methyl)-4-phenyl-piperazine-1-carbonyl]-2,4,6-trimethyl-pyridin-3-yl}amino)piperidin-1-yl] benzonitrile] | 1000 to 3000 | > 10000 | – | –
27 | Cc1ccc(C(=O)N2CCN(c3ccccc3S(N)(=O)=O)CC2)cc1NC1CCN(c2ccccc2C#N)CC1 [I-11] | 3000 to 5000 | > 10000 | – | –
28 | CNC(=O)c1cc(F)ccc1N1CCN(C(=O)c2cc(NC3CCN(c4ccccc4C#N)CC3)c(C)cc2C)CC1 [I-65] | 10 to 1000 | > 10000 | – | –
29 | Cc1cc(C)c(C(=O)N2CCN(c3ccccc3S(N)(=O)=O)CC2)cc1NC1C2CN(c3ccccc3C#N)CC21 (centres unmarked) [I-132, 2-(4-(5-(3-(2-Cyanophenyl)-3-azabicyclo[3.1.0]hexan-6-ylamino)-2,4-dimethylbenzoyl)piperazin-1-yl)benzenesulfonamide] | 1000 to 3000 | > 10000 | – | –
30 | Cc1cc(C)c(C(=O)N2CCN(c3cccnc3[S@](C)(=N)=O)CC2)c(C)c1NC1CCN(c2ncccc2Cl)CC1 [I-175, (R)-(3-(4-(3-((1-(3-chloropyridin-2-yl)piperidin-4-yl)amino)-2,4,6-trimethylbenzoyl)piperazin-1-yl)pyridin-2-yl)(imino)(methyl)-λ^6-sulfanone Trifluoroacetate Salt] | 10 to 1000 | > 10000 | – | –
31 | Cc1cc(C)c(C(=O)N2CCN(c3ccccc3S(N)(=O)=O)CC2)cc1NC1CCN(c2ccccc2C)CC1 [I-108, 2-(4-(2,4-Dimethyl-5-(1-o-tolylpiperidin-4-ylamino)benzoyl)piperazin-1-yl)benzenesulfonamide] | 1000 to 3000 | > 10000 | – | –
